What was measured:
Assay type in all cases: in vitro ADME
CYP1A2 = molecular target: T1, CYP1A2 (Homo sapiens, UniProt P05177); experiment: CYP inhibition assay in human liver microsomes (LC-MS/MS cocktail), phenacetin to acetaminophen
T1 construct: Pooled human liver microsomes were purchased from BD Gentest; tissue BD Gentest; host or cells: pooled human liver microsomes
T1 sequence (P05177 1-516): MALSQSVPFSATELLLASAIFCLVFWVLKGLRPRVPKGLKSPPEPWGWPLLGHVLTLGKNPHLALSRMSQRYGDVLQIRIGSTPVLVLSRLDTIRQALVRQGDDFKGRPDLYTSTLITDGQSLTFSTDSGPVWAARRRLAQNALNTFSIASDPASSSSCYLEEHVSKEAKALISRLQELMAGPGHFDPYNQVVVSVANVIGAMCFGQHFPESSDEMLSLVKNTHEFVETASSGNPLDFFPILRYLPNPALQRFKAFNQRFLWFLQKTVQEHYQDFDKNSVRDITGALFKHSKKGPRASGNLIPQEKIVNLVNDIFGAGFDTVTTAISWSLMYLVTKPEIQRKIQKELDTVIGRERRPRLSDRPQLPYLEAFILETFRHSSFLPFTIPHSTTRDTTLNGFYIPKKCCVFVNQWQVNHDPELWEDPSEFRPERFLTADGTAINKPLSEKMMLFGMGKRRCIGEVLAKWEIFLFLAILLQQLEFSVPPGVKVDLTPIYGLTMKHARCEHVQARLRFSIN
Method: (§1) For the experimental method, the reference method was used. Briefly, incubation mixtures were composed of 0.5 mg/mL human liver microsomes; varying concentrations of CS in DW (0.1, 0.3, 1, 3, 10, 30, 100, and 200 µM) or MSM in DW (0.1, 0.3, 1, 3, 10, 30, 100, 300, and 1000 µM) or GCS in DMSO (0.1, 0.3, 1, 3, 10, 30, 100, 300, and 1000 µM); a substrate mixture in DMSO (40 µM phenacetin for CYP1A2; 2.5 µM coumarin for CYP2A6; 80 µM bupropion for CYP2B6; 10 µM diclofenac for CYP2C9; 80 µM [±]-mephenytoin for CYP2C19; 5 µM dextromethorphan for CYP2D6; 2.5 µM midazolam and 30 µM testosterone for CYP3A4); and an NADPH generating system (NGS; 0.1 M glucose-6-phosphate, 10 mg/mL β-NADP^+, and 1 U/mL glucose-6-phosphate dehydrogenase) in a total volume of 200 µL potassium phosphate buffer (0.1 M, pH 7.4). The reaction mixture, excluding NGS, underwent pre-incubation at 37 °C for 5 min, followed by further incubation with NGS for 30 min in a water bath. Well-established selective CYP inhibitors were employed as positive controls (40 µM ketoconazole for CYP3A4, 50 µM furafyllin for CYP1A2, 10 µM quinidine for CYP2D6, 125 µM ticlopidine for CYP2C19 and CYP2B6, 10 µM 8-methoxsalen for CYP2A6, and 10 µM sulfaphenazole for CYP2C9). Post incubation, the reaction was halted by adding 50 µL ice-cold 1% formic acid acetonitrile. After centrifugation at 13,200 rpm for 5 min, the supernatant was collected from the sample and subjected to analysis via an LC-MS/MS system. All experiments were performed in triplicate.
(§2) For the experimental method, the reference method was used. The LC-MS/MS system utilized in this study consisted of an Agilent 1260 binary pump HPLC system coupled with the Agilent 6460 Triple Quadrupole mass spectrometer (Agilent Technologies, Santa Clara, CA, USA), featuring an electrospray ionization source. Chromatographic separation was achieved using a Fortis C8 column (2.1 × 100 mm, 5.0 µm; Fortis Technologies Ltd., Neston, UK). The HPLC mobile phases comprised (A) 0.1% formic acid and (B) 0.1% formic acid in 90% acetonitrile. A gradient elution method was employed with an initial solvent B concentration of 15% and a flow rate of 0.25 mL/min. […] The total run time was 11.0 min, and the injection volume was 5 µL. Mass detection was conducted in the positive ion mode using multiple reaction monitoring (MRM). Specific MRM transitions for each analyte are detailed in Table S4.

CYP3A4(M) = molecular target: T2, CYP3A4(M) (Homo sapiens, UniProt P08684); experiment: CYP inhibition assay in human liver microsomes (LC-MS/MS cocktail), midazolam to 1-OH-midazolam
T2 construct: Pooled human liver microsomes were purchased from BD Gentest; tissue BD Gentest; host or cells: pooled human liver microsomes
T2 sequence (P08684 whole entry): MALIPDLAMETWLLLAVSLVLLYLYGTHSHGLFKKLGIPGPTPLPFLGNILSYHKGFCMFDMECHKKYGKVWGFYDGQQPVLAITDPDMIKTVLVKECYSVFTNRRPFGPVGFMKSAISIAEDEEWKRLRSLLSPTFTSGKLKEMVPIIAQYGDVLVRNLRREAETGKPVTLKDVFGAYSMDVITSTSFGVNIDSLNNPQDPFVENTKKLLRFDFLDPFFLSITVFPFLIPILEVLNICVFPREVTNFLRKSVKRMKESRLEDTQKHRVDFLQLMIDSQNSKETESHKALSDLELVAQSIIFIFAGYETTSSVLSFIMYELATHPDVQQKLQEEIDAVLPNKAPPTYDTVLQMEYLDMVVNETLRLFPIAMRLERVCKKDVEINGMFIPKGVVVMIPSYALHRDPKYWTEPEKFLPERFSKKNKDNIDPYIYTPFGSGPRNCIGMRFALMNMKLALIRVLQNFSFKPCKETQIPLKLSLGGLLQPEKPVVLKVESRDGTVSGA
Method: For the experimental method, the reference method was used. […] The reaction mixture, excluding NGS, underwent pre-incubation at 37 °C for 5 min, followed by further incubation with NGS for 30 min in a water bath. […] Post incubation, the reaction was halted by adding 50 µL ice-cold 1% formic acid acetonitrile. After centrifugation at 13,200 rpm for 5 min, the supernatant was collected from the sample and subjected to analysis via an LC-MS/MS system. All experiments were performed in triplicate.
For the experimental method, the reference method was used. […] The HPLC mobile phases comprised (A) 0.1% formic acid and (B) 0.1% formic acid in 90% acetonitrile. […] The total run time was 11.0 min, and the injection volume was 5 µL. Mass detection was conducted in the positive ion mode using multiple reaction monitoring (MRM). Specific MRM transitions for each analyte are detailed in Table S4.

CYP2A6 = molecular target: T3, CYP2A6 (Homo sapiens, UniProt P11509); experiment: CYP inhibition assay in human liver microsomes (LC-MS/MS cocktail), coumarin to 7-OH-coumarin
T3 construct: Pooled human liver microsomes were purchased from BD Gentest; tissue BD Gentest; host or cells: pooled human liver microsomes
T3 sequence (P11509 1-494): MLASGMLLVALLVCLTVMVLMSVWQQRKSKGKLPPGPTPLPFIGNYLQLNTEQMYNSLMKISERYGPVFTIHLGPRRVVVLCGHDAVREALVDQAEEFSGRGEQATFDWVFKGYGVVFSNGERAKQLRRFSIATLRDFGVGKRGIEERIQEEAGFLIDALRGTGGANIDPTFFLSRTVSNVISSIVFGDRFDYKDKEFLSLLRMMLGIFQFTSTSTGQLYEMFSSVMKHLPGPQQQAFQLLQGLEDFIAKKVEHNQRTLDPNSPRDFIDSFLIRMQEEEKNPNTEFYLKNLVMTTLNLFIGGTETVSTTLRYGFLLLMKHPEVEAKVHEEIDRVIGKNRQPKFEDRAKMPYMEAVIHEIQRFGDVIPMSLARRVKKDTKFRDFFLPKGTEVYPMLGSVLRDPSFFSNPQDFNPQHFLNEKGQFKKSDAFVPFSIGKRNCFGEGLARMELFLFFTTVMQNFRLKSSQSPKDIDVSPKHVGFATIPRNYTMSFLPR
Method: as §1, §2

**Q.** What does the source list for `N[C@H]1C(O)O[C@H](CO)[C@@H](O)[C@@H]1O` (stereo partly drawn) [GCS, glucosamine]?
**A.** Remaining Activities (% of Control, n = 3) (CYP1A2; test substance 0.3 μM): 110.2 ± 20.5 % of Control; Remaining Activities (% of Control, n = 3) (CYP1A2; test substance 1 μM): 103.1 ± 1.5 % of Control; Remaining Activities (% of Control, n = 3) (CYP1A2; test substance 3 μM): 101.1 ± 7.5 % of Control; Remaining Activities (% of Control, n = 3) (CYP1A2; test substance 10 μM): 94.2 ± 1.8 % of Control; Remaining Activities (% of Control, n = 3) (CYP1A2; test substance 30 μM): 94.1 ± 3.0 % of Control; Remaining Activities (% of Control, n = 3) (CYP1A2; test substance 100 μM): 97.2 ± 3.7 % of Control; Remaining Activities (% of Control, n = 3) (CYP1A2; test substance 300 μM): 86.7 ± 2.8 % of Control; Remaining Activities (% of Control, n = 3) (CYP1A2; test substance 1000 μM): 82.5 ± 12.0 % of Control; Remaining Activities (% of Control, n = 3) (CYP3A4(M); test substance 0.3 μM): 104.4 ± 13.5 % of Control; Remaining Activities (% of Control, n = 3) (CYP3A4(M); test substance 1 μM): 103.5 ± 3.2 % of Control; Remaining Activities (% of Control, n = 3) (CYP3A4(M); test substance 3 μM): 98.3 ± 1.9 % of Control; Remaining Activities (% of Control, n = 3) (CYP3A4(M); test substance 10 μM): 97.2 ± 1.5 % of Control; Remaining Activities (% of Control, n = 3) (CYP3A4(M); test substance 30 μM): 96.9 ± 6.1 % of Control; Remaining Activities (% of Control, n = 3) (CYP3A4(M); test substance 100 μM): 95.2 ± 8.2 % of Control; Remaining Activities (% of Control, n = 3) (CYP3A4(M); test substance 300 μM): 91.0 ± 3.3 % of Control; Remaining Activities (% of Control, n = 3) (CYP3A4(M); test substance 1000 μM): 88.7 ± 12.1 % of Control; Remaining Activities (% of Control, n = 3) (CYP2A6; test substance 0.3 μM): 107.6 ± 5.2 % of Control; Remaining Activities (% of Control, n = 3) (CYP2A6; test substance 1 μM): 105.3 ± 0.4 % of Control; Remaining Activities (% of Control, n = 3) (CYP2A6; test substance 3 μM): 106.2 ± 2.3 % of Control; Remaining Activities (% of Control, n = 3) (CYP2A6; test substance 10 μM): 101.5 ± 1.4 % of Control; Remaining Activities (% of Control, n = 3) (CYP2A6; test substance 30 μM): 102.1 ± 2.5 % of Control; Remaining Activities (% of Control, n = 3) (CYP2A6; test substance 100 μM): 103.4 ± 2.7 % of Control; Remaining Activities (% of Control, n = 3) (CYP2A6; test substance 300 μM): 97.9 ± 0.4 % of Control; Remaining Activities (% of Control, n = 3) (CYP2A6; test substance 1000 μM): 94.1 ± 7.3 % of Control
